Assay results published in patent publication EP2308493A1, “AMELIORATING OR THERAPEUTIC AGENT FOR DYSLIPIDEMIA” (Mochida Pharmaceutical Co., Ltd., priority 2008, dated 2010).

Columns and labels:
[1] = system: high sucrose diet-fed hamster; test: Effectiveness in high sucrose diet-fed hamster (plasma lipid change rate); format: in vivo, Syrian hamsters; details: for Change rate Non-HDL Cho / Change rate TG / Change rate Total Cho: 14th day, versus control group
Protocol: Pharmacological action of EPA-E and/or tocopherol nicotinate on plasma lipids was confirmed by using hamsters that had been fed high sucrose diet. 6 week old male Syrian hamsters (Japan SLC, Inc.) were allowed to freely take fish meal-less F-1 diet (F-1, Funabashi Farm) under 12 hour light-dark cycles at 23°C for 2 weeks, and then, high sucrose diet (D11511, Research Diet Inc.) for 2 weeks. 6 groups (each comprising 6 animals), namely, control group, EPA-E 300 group, EPA-E 1000 group, tocopherol nicotinate 1000 group (hereinafter referred to as TN1000 group), low dose combination group, and high dose combination group were set. During the feeding of the high sucrose diet, the EPA-E 300 group was administered with 300 mg/kg of EPA-E (Mochida Pharmaceutical Co.); the EPA-E 1000 group was administered with 1000 mg/kg of EPA-E; the TN1000 group was administered with 1000 mg/kg of tocopherol nicotinate (Wako Pure Chemical Industries, Ltd.); the low dose combination group was administered with 300 mg/kg of EPA-E and 1000 mg/kg of tocopherol nicotinate; and the high dose combination group was administered with 1000 mg/kg of EPA-E and 1000 mg/kg of tocopherol nicotinate after suspending in 5% aqueous solution of gum arabic. The control group was orally administered with 5% aqueous solution of gum arabic once a day. Blood was collected one day before the start of the administration and on the 14th day of the administration, and plasma was separated by centrifugation. Plasma TG, total Cho, and HDL Cho concentration were respectively measured using a biochemical analyzer (A0400, Olympus Corporation) and commercially available assay reagent (Wako Pure Chemical Industries, Ltd.). The nan-HDL Cho concentration (total Cho-HDL Cho) was also calculated. No statistically significant difference was found in the plasma lipid concentrations of various groups on the day before the start of the administration. The plasma TG, total Cho, and non-HDL Cho concentration of each group at 14th day of the drug administration was compared with the corresponding values of the control group, and change rate was calculated by the following equation: Change rate (%) = [{(lipid concentration of each group)-(lipid concentration of control group)}x100]/(lipid concentration of the control group) [formula] For the combination group, sum of the change rate of the EPA-E sole administration group and the change rate of the tocopherol nicotinate sole administration group is shown in Table 1 as the theoretical change rate of the combination group. When the change rate of the actual measurement was negative and the value was lower than the theoretical value, synergistic effect by the combined use in the lipid decrease was deemed to have been realized.

Cho diet rabbit = test: Effectiveness in Cho diet rabbit (plasma lipids, auricle skin temperature, platelet collagen aggregation); format: in vivo, Japan white male rabbits; details: HCD diet 12 weeks; EPA-E 1000 mg/kg or tocopherol nicotinate 300 mg/kg orally once a day; compared to control group
Text: Pharmacological action of EPA-E and/or tocopherol nicotinate on plasma lipids, auricle skin temperature, and platelet aggregation is confirmed by using rabbits that have been fed with Cho diet (hereinafter referred to as "HCD diet") known to develop a dyslipidemia. Japan white male rabbits (Funabashi Farm) having a body weight of 2.7 to 3.3 kg are allowed to freely take 100 g/day of normal diet (F-1, Funabashi Farm) or HCD diet (RC-4 supplemented with 1% Cho, Oriental Yeast Co.,Ltd.) for 12 weeks under 12 hour light-dark cycles at 23°C. 5 groups (each comprising 10 animals), namely, normal group (normal diet feeding); control group (HCD diet feeding); EPA-E group (HCD diet feeding + EPA-E administration); tocopherol nicotinate group (HCD diet feeding + tocopherol nicotinate administration); and combination group (HCD diet feeding + EPA-E administration + tocopherol nicotinate administration) are set. During the feeding, the EPA-E group is administered with 1000 mg/kg of EPA-E; the tocopherol nicotinate group is administered with 300 mg/kg of tocopherol nicotinate; and the combination group is administered with 1000 mg/kg of EPA-E and […] of tocopherol nicotinate after suspending in 5% aqueous solution of gum arabic. The administration is conducted orally once a day. The normal group and the control group are orally administered with 5% aqueous solution of gum arabic once a day. At the start of the administration and after 12 weeks of feeding, auricle skin temperature is measured by thermography and blood is collected for plasma biochemical tests. Platelet collagen aggregation is also checked after 12 weeks of feeding by measuring absorbance.

hypertriglyceridemia rat = test: Effectiveness in hypertriglyceridemia rat; format: in vivo, Zucker Diabetic Fatty rat; details: 4 weeks; EPA-E 300 mg/kg or tocopherol nicotinate 100 mg/kg orally once a day as emulsion; compared to control group
Protocol: 6 week old male Zucker Diabetic Fatty rat (Charles River Japan) are allowed to freely take diabetes-inducing diet (Purina 5008 (crude protein content, 23.5%; crude lipid content, 6.5%)) under 12 hour light-dark cycles at 23°C. 4 groups (each comprising 10 animals), namely, control group; EPA-E group (EPA-E administration); tocopherol nicotinate group (tocopherol nicotinate administration); and combination group (EPA-E administration + tocopherol nicotinate administration) are set. During the feeding, the EPA-E group is administered with 300 mg/kg of EPA-E; the tocopherol nicotinate group is administered with 100 mg/kg of tocopherol nicotinate; and the combination group is administered with 300 mg/kg of EPA-E and 100 mg/kg of tocopherol nicotinate. The administration is conducted orally once a day. The drugs are administered by preparing an emulsion preparation according to Preparation Example 8. The control group is orally administered with base of the emulsion preparation of Preparation Example 8 once a day. At the start of the administration and after 4 weeks of feeding, auricle skin temperature is measured by thermography and blood is collected for plasma biochemical test.

[2] = system: lauric acid-induced peripheral arterial occlusive hypertriglyceridemia rat; test: Effectiveness in lauric acid-induced peripheral arterial occlusive hypertriglyceridemia rat (lesion score); format: in vivo, Wister rats; details: 2 weeks after the surgery; EPA-E 300 mg/kg or tocopherol nicotinate 100 mg/kg orally once a day; compared to control group
Protocol: 4 week old male Wister rats (Japan SLC, Inc.) are allowed to freely take high sucrose diet (AIN-76A, PURINA MILLS) for 4 weeks under 12 hour light-dark cycles at 23°C. 5 groups (each comprising 10 animals), namely, sham surgery group; control group, EPA-E group (EPA-E administration); tocopherol nicotinate group (tocopherol nicotinate administration); and combination group (EPA-E administration + tocopherol nicotinate administration) are set. During the feeding, the EPA-E group is administered with 300 mg/kg of EPA-E; the tocopherol nicotinate group is administered with 100 mg/kg of tocopherol nicotinate; and the combination group is administered with 300 mg/kg of EPA-E and 100 mg/kg of tocopherol nicotinate after suspending in 5% aqueous solution of gum arabic. The administration is conducted orally once a day. […] Progress of the lesion of the limbs on the peripheral side of the injection site is scored for wet gangrene and dry gangrene, and the lesion is visually inspected with naked eyes every day until 2 weeks after the surgery. Progress of the lesion is scored by the following criteria: • Score 0: no change, score 1: the lesion is limited to nail, score 2: the lesion is limited to finger, score 3: the lesion is expanded to footpad, and score 4: the lesion is expanded to lower limb.

| Compound | Change rate Non-HDL Cho ([1]; 300 mg/kg orally) [%] | Change rate TG ([1]; 300 mg/kg orally) [%] | Change rate Total Cho ([1]; 300 mg/kg orally) [%] | Change rate Non-HDL Cho ([1]; 1000 mg/kg orally) [%] | Change rate TG ([1]; 1000 mg/kg orally) [%] | Change rate Total Cho ([1]; 1000 mg/kg orally) [%] | decrease of the auricle skin temperature (Cho diet rabbit) | enhancement of the platelet collagen aggregation (Cho diet rabbit) | plasma TG concentration (Cho diet rabbit) | plasma total Cho concentration (Cho diet rabbit) | plasma TG concentration (hypertriglyceridemia rat) | plasma free fatty acid concentration (hypertriglyceridemia rat) | score of progress of the lesion (wet and dry gangrene, 0-4) [2] | lipid reducing action (plasma TG, total Cho, non-HDL Cho) ([1]; high sucrose diet, 14 days oral administration) |
| --- | --- | --- | --- | --- | --- | --- | --- | --- | --- | --- | --- | --- | --- | --- |
| CC/C=C\C/C=C\C/C=C\C/C=C\C/C=C\CCCC(=O)OCC [EPA-E, Ethyl icosapentaenoate] | 14.8 | 2.7 | 11.1 | 11.1 | 19.6 | 2.7 | – | – | – | – | – | – | – | – |
| Cc1c(C)c2c(c(C)c1OC(=O)c1cccnc1)CCC(C)(CCCC(C)CCCC(C)CCCC(C)C)O2 (centres unmarked) [tocopherol nicotinate] | – | – | – | -11.6 | -23.3 | -3.7 | also suppressed | also suppressed | suppressed increase | suppressed increase | suppressed increase | suppressed increase | improved scores | the action of reducing the TG and non-HDL Cho was found |
